Patent publication US9394561B2, “Cyclic peptide production” (National Research Council of Canada, priority 2011, dated 2016)
Entries after “also recorded” stand apart in the source; their conditions may differ. Square brackets hold non-standard residues; d marks the D form. Ends that are not written are not given here.

Legend:
[1] = test system: S. vaccaria PCY1; assay: In vitro assay of recombinant S. vaccaria PCY1 with wild type and mutant presegetalin substrates, products detected by LC/MS; format: biochemical, Saponaria vaccaria; set-up: key to CP (cyclic peptide product detected by LC/MS after in vitro assay) / LP (linear peptide product detected by LC/MS after in vitro assay): +=presence; −=absence; conditions: for cyclic peptide production by S. vaccaria PCY1 (in words) / linear peptide production by S. vaccaria PCY1 (in words): LC/MS and MS/MS; for CP (cyclic peptide product detected by LC/MS after in vitro assay) / LP (linear peptide product detected by LC/MS after in vitro assay): substrates tested for cyclization by S. vaccaria PCY1
Sequence of S. vaccaria PCY1 (as listed by the source): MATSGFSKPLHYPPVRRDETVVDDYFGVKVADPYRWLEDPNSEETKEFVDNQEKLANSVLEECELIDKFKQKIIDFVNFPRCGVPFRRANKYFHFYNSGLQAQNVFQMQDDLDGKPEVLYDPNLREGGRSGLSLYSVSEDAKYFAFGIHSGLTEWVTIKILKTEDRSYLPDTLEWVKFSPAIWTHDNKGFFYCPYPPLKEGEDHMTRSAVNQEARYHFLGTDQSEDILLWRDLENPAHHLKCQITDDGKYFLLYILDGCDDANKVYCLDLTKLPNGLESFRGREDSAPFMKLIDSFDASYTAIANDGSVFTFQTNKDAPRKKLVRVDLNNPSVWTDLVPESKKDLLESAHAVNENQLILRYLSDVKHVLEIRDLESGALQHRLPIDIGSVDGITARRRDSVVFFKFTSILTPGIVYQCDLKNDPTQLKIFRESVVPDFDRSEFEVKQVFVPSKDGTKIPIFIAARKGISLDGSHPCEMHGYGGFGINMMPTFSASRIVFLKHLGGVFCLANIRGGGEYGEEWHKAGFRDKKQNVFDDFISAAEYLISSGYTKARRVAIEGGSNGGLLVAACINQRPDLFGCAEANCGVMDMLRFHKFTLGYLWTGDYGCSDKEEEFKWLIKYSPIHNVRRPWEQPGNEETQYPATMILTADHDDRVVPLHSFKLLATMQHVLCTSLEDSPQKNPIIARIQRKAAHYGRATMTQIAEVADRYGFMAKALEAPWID
Description: The gene corresponding to S. vaccaria PCY1 was cloned and expressed in E. coli with a His-tag. HisPur Cobalt Resin™ (Thermo Scientific) was used for purification of recombinant PCY1. The purified PCY1 was quantified using BCA method (Pierce; http://http://www.piercenet.com/) with BSA as a calibration standard. The in vitro assay contained 20 mM Tris buffer (pH 8.5), 100 mM NaCl, 5 mM DTT, 0.2 mg BSA, and 1.5 μg of substrates (wild type and mutant presegetalins, procured from Bio Basic Inc with >90% purity) and was initiated by the addition of 0.3 μg of PCY1, in a total reaction volume of 100 μl. The assay was incubated at 30° C. for up to 1 h and stopped by placing reactions in dry ice. The assays were lyophilized, re-suspended in methanol, evaporated and re-suspended in 50:50 v/v methanol/water for LC/MS analysis.
Ion trap ESI+ LC/MS/MS analysis was used to detect production of cyclic peptides using an Agilent 6320 Ion Trap LC/MS system under default Smart Parameter settings. The analyzer and ion optics were adjusted to achieve proper resolution (Agilent Installation Guide #G2440-90105) using the ESI Tuning Mix (Agilent #G2431A). The mass spectrometer scanned from 50 to 2200 mass units at 8100 mass units sec^−1 with an expected peak width of 0.35 atomic mass units. For auto MS/MS, the trap isolation width was 4 atomic mass units. The associated Agilent 1200 LC was fitted with a Zorbax 300 EXTEND-C18 column (150×2.1 mm, 3.5 μm particle size) maintained at 35° C. The binary solvent system consisted of 90:10 v/v water/acetonitrile containing 0.1% formic acid and 0.1% ammonium formate (solvent A) and 10:90 v/v water/acetonitrile containing 0.1% formic acid and 0.1% ammonium formate (solvent B). The separation gradient was 90:10 A/B to 50:50 A/B in 3 ml over 20 min.
In order to characterize substrate specificity of PCY1 and understand the segetalin A biosynthetic mechanism, a total of 44 substrates (Table 3) were tested for the PCY1 activity and the results are briefly summarized in Table 3. The last two columns in Table 3 summarize product type detected by LC/MS after in vitro assays (CP is cyclic peptide and LP is linear peptide, +=presence, −=absence, NA=not applicable). The 44 substrates were classified as follows: • (A) Presegetalin A1 [14,32], a wild type (WT) precursor of segetalin A • (B) Truncated mutants of presegetalin A1[14,32] • (C) Alanine scanning mutants corresponding to variants of the mature segetalin A sequence • (D) Alanine scanning mutants of the C-terminal region of presegetalin A1[14,32] • (E) D-amino acid mutants corresponding to variants of the mature segetalin A sequence • (F) Insertion mutants corresponding to variants of the mature segetalin A sequence • (G) Other A-class and F-class presegetalins • (H) Putative cyclic peptide precursors from Dianthus caryophyllus

[2] = test system: Dianthus superbus PCY1-c1141; assay: In vitro assay of recombinant Dianthus superbus PCY1-c1141 with presegetalin substrates, LC/MS; format: biochemical
Sequence of Dianthus superbus PCY1-c1141 (as listed by the source): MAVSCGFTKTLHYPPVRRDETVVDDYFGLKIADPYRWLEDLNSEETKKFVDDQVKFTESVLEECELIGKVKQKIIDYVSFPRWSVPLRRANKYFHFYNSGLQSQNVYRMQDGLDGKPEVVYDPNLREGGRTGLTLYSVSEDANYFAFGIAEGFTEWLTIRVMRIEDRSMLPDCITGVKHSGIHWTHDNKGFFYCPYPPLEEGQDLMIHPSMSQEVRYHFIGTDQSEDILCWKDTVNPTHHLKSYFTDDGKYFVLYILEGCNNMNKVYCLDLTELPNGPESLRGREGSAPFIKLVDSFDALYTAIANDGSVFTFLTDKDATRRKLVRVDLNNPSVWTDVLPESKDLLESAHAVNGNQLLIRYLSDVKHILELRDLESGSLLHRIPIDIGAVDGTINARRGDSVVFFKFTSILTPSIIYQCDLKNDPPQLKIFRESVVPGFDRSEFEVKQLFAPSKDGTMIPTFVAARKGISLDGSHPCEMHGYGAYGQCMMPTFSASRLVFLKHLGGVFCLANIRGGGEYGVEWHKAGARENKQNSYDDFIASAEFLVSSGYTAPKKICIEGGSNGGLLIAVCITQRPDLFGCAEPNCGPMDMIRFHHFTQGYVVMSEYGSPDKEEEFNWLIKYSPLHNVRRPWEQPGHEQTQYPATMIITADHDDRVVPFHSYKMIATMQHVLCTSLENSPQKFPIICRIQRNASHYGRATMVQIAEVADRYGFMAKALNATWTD
Excerpt: (§1) To test for activity of the homologues of S. vaccaria PCY1, two cDNAs encoding were cloned from Dianthus superbus (c250 and c1141 contigs) and one from Silene vulgaris (c150 contig) essentially as described for Saponaria vaccaria PCY1 in Example 2. These were named Dianthus superbus Pcy1-c250, Dianthus superbus Pcy1-c1141 and Silene vulgaris Pcy1-c150, Briefly, gene specific forward and reverse primers were used to PCR amplify the aforementioned contigs based on homologue identification in EST collections from Dianthus leaves and Silene roots. The Dianthus superbus (c250 and c1141 contigs) and Silene vulgaris (c150 contig) PCY1 homologues were assayed with 15 μg/mL presegetalin A1[14,32] in vitro as previously described for semi-purified plant extracts to determine whether they can catalyze the production of segetalin A from presegetalin A1[14,32]. The assays were initiated by the addition of 120 ng (c250), or 138 ng (c1141) purified recombinant Dianthus superbus or 4 μg Silene vulgaris Pcy1 respectively, in a total reaction volume of 100 μL. […] Thus, there are additional enzymes in the Caryophyllaceae family, which have the same enzymatic activity as S. vaccaria PCY1.
Seven mutant peptides containing D-amino acids were synthesized (No. 26 to 32 in Table 3) and tested with S. vaccaria PCY1 under optimized in vitro conditions. In initial experiments, each amino acid corresponding to segetalin A was substituted with its D-amino acid consecutively from position 15 to 19 (No. 26 to 30). Glycine at position 14 is achiral and no substitution was required. […] To test this possibility two peptides were synthesized No. 31 and No. 32 in Table 3. […] The cyclic peptides were detected as diagnostic ions (M+H)^+ and (M+Na)^+ in LC/MS and their presence was further confirmed by MS/MS analysis. […] The cyclic peptide produced from No. 32 has alternating D- and L-forms of amino acids (with the exception of the glycine), which gives it the potential to self-assemble into nanotube under appropriate conditions (Gadhiri 1993).

[3] = test system: Dianthus superbus PCY1-c250; assay: In vitro assay of recombinant Dianthus superbus PCY1-c250 with presegetalin substrates, LC/MS; format: biochemical
Sequence of Dianthus superbus PCY1-c250 (as listed by the source): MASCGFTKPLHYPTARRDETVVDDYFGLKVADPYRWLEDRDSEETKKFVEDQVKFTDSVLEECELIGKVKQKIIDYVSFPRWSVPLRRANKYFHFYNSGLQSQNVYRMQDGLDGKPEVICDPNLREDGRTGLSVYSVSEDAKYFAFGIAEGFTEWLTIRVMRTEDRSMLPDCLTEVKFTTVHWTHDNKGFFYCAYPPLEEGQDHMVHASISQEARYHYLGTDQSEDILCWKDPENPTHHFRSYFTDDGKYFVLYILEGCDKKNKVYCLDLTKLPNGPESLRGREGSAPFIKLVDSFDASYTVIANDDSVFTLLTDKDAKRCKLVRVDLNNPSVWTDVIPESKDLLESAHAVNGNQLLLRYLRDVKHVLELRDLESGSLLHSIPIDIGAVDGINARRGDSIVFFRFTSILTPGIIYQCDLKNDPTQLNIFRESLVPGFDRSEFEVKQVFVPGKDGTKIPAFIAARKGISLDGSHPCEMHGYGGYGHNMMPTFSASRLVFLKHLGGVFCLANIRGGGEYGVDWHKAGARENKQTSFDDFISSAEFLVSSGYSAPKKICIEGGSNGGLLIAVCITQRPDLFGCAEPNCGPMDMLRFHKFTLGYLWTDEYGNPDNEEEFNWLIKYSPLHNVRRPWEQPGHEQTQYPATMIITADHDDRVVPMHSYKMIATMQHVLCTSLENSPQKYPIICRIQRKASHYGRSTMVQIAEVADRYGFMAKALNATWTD
Excerpt: as §1
Dianthus superbus PCY1-c250 was also assayed with the alanine scan mutants and the activities were compared with those of S. vaccaria PCY1.

Row | Substance | cyclic peptide production by S. vaccaria PCY1 (in words) [1] | CP (cyclic peptide product detected by LC/MS after in vitro assay) [1] | LP (linear peptide product detected by LC/MS after in vitro assay) [1] | cyclic peptide production by D. superbus PCY1-c1141 (in words) [2] | cyclic peptide production by D. superbus PCY1-c250 (in words) [3] | linear peptide production by S. vaccaria PCY1 (in words) [1] | linear peptide production by D. superbus PCY1-c250 (in words) [3] | segetalin A production, times lower than the WT substrate ([1]; alanine scanning mutants of C-terminal region, FIG. 9)
1 | 31 (GV[dP]VAAFQAKDVENASAPV) [compound 31] | made cyclic peptides | + | − | made cyclic peptides |  |  |  | 
2 | 11 (GVPVAAFQAKDVENASAPV; Presegetalin A1[14,32] variant aa18 = alanine) [compound 11] |  | + | − |  | relatively more cyclic peptide than did S. vaccaria PCY1 |  |  | 
3 | 32 (GV[dP]V[dA]AFQAKDVENASAPV) [compound 32] | made cyclic peptides | + | − | made cyclic peptides; also recorded: relatively more active; also recorded: higher than the activity of S. vaccaria PCY1 |  |  |  | 
4 | 38 (GVKYAFQPKDSENASAPV; Presegetalin G1[14,31]) [compound 38] | cyclic peptide products were detected from all of them | + | − |  |  |  |  | 
5 | 5 (GVPVWAF; Presegetalin A1[14,20]) [compound 5] |  | − | − |  |  |  |  | 
6 | 33 (GVPAVWAFQAKDVENASAPV; Presegetalin A1[14,32] ins 16A17) [compound 33] | both detected | + | + |  |  | both detected |  | 
7 | 7 (AVPVWAFQAKDVENASAPV; Presegetalin A1[14,32] variant aa14 = alanine) [compound 7] | less product | + | + |  | no detectable cyclic peptide | highest amount of linear peptide product | a large amount of linear peptide was detected | 
8 | 28 (GVP[dV]WAFQAKDVENASAPV) [compound 28] |  | + | − |  |  |  |  | 
9 | 12 (GVPVWVFQAKDVENASAPV; Presegetalin A1[14,32] variant aa19 = valine) [compound 12] | neither cyclic peptide nor linear peptide was detected | − | − |  |  | neither cyclic peptide nor linear peptide was detected |  | 
10 | 17 (GVPVWAFQAKAVENASAPV; Presegetalin A1[14,32] D24A) [compound 17] | sensitive | + | + |  |  |  |  | 
11 | 34 (GVPAAAVWAFQAKDVENASAPV; Presegetalin A1[14,32] ins 16AAA17) [compound 34] | produced the expected 9 amino acid cyclic peptide | + | + |  |  | linear peptide products |  | 
12 | 24 (GVPVWAFQAKDVENASAAV; Presegetalin A1[14,32] P31A) [compound 24] | sensitive | + | + |  |  |  |  | 11 times
13 | 21 (GVPVWAFQAKDVENVSAPV; Presegetalin A1[14,32] A28V) [compound 21] | sensitive | + | + |  |  |  |  | 
14 | 36 (GLSFAFPAKDAENASSPV; Presegetalin D1[14,31]) [compound 36] | cyclic peptide products were detected from all of them | + | + |  |  |  |  | 
15 | 25 (GVPVWAFQAKDVENASAPA; Presegetalin A1[14,32] V32A) [compound 25] |  | + | + |  |  |  |  | 
16 | 30 (GVPVW[dA]FQAKDVENASAPV) [compound 30] | neither cyclic peptide nor linear peptide were detected | − | − |  |  | neither cyclic peptide nor linear peptide were detected |  | 
17 | 6 (GVPVWA; Presegetalin A1[14,19]) [compound 6] |  | − |  |  |  |  |  | 
18 | 3 (GVPVWAFQAKDVENA; Presegetalin A1[14,28]) [compound 3] |  | − | + |  |  | almost equivalent to the linear peptide formed from the WT substrate |  | 
19 | 15 (GVPVWAFQVKDVENASAPV; Presegetalin A1[14,32] A22V) [compound 15] |  | + | + |  |  |  |  | 
20 | 26 (G[dV]PVWAFQAKDVENASAPV) [compound 26] |  | + | + |  |  |  |  | 
